Assay [1] addresses T1, Estrogen receptor (Homo sapiens, UniProt P03372).
T1 sequence (P03372 whole entry): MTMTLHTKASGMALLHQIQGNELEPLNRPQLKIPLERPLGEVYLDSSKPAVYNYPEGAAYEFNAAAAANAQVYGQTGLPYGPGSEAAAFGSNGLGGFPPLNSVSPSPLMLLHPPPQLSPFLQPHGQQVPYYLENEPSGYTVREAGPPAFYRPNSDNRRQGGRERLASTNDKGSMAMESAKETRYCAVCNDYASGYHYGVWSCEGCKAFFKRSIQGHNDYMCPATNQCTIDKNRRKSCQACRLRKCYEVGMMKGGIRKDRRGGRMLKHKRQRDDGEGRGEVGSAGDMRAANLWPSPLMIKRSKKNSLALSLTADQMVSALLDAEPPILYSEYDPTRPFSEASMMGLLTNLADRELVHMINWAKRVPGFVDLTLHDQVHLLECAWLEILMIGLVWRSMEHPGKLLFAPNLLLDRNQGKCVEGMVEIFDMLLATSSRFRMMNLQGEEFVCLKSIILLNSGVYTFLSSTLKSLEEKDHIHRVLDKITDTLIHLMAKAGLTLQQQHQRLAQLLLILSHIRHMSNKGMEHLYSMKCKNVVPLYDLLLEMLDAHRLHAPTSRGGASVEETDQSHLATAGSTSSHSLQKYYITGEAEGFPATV
Description: Binding affinity for estrogen receptor alpha

Another assay has as its target Estrogen receptor beta (Homo sapiens, UniProt Q92731).
Assay [2] deals with Estrogen receptor (Homo sapiens, UniProt Q92731+P03372).
Description: Inhibition of estradiol-stimulated MCF-7 breast adenocarcinoma cell proliferation

pKi: −log10 of the molar value.

Chain of Estrogen receptor beta (Q92731 whole entry): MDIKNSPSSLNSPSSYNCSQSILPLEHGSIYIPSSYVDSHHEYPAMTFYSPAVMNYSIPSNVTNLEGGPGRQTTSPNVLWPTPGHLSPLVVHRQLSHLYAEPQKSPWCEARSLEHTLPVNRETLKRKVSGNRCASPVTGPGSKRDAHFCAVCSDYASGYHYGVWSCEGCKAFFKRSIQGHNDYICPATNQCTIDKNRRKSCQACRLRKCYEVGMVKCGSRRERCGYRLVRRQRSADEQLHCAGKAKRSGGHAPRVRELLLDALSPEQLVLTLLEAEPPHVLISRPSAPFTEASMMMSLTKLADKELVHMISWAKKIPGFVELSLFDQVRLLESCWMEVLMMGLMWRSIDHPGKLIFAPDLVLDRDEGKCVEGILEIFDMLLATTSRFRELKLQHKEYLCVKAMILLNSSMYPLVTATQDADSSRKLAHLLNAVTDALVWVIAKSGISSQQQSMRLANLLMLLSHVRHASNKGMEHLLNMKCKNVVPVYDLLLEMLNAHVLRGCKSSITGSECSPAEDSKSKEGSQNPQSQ
Description for Estrogen receptor beta: Binding affinity for estrogen receptor beta

For the compound `Oc1ccc(C2CCc3cc(O)ccc3N2)cc1` (stereo not given), the results for the pKi at Estrogen receptor [1] and at Estrogen receptor beta were 6.77 and 7.19, respectively.
Consider `O=C(c1ccc(OCCN2CCCCC2)cc1)N1c2ccc(O)cc2CCC1c1ccc(O)cc1` (stereo not given), for which, on Estrogen receptor [2], the IC50 came to 990 nM. Besides, at Estrogen receptor beta, the negative-log Ki (pKi) was less than 6.00.
With `Oc1ccc(C2CCc3cc(O)ccc3N2Cc2ccc(OCCN3CCCC3)cc2)cc1` (stereo not given), the concentration for half-maximal inhibition (IC50) against Estrogen receptor [2] is listed as 68 nM. The compound further had a pKi on Estrogen receptor [1] of 8.96.
As to `Oc1cccc(C2CCc3cc(O)ccc3N2Cc2ccc(OCCN3CCCCC3)cc2)c1` (stereo not given), the pKi at Estrogen receptor beta was 8.26.
Regarding `O=C(c1ccc(OCCN2CCCCC2)cc1)N1c2ccc(O)cc2CCC1c1cccc(O)c1` (stereo not given), on Estrogen receptor [2], the IC50 came out at 590 nM. For the same compound, the pKi on Estrogen receptor [1] was 7.43; at Estrogen receptor beta, less than 6.00.
As to `Oc1ccc(-c2ccc3cc(O)ccc3n2)cc1`, the pKi at Estrogen receptor [1] was 6.51; on Estrogen receptor beta, 7.46.
For the compound `Oc1ccc2c(c1)CCC(c1ccccc1)N2Cc1ccc(OCCN2CCCCC2)cc1` (stereo not given), on Estrogen receptor [2], the IC50 turned out to be 490 nM. For the same compound, the pKi is 8.77 on Estrogen receptor [1] and 8.40 at Estrogen receptor beta.

The values are drawn from ChEMBL document CHEMBL1136521, “Tetrahydroquinoline-based selective estrogen receptor modulators (SERMs)” (Bioorg Med Chem Lett, 2003).
